Measured values published in EP1171102B1, “ANHYDROUS TABLET OF RANITIDINE HYDROCHLORIDE WITH DOUBLE-LAYER COATING AND ITS COMPOSITION” (priority 1999, dated 2000).
Counter-ions that a name gives are not always drawn.

Tests used:
[1] = Hygroscopicity and conversion of the crystalline forms on storage; type: physicochemical; conditions: product made by the method of the invention; chemico-physical analysis
[2] = cited from earlier work; for hygroscopicity: comparison of Form 1 and Form 2, hydrochloride
[3] = cited from earlier work

Q: For CNC(=C[N+](=O)[O-])NCCSCc1ccc(CN(C)C)o1.Cl [anhydrous ranitidine hydrochloride], which “conversion into the allomorphous Form 2 during the storage” value [1] is on record?
A: Its value is “not gradually converted during the storage into the allomorphous Form 2”.

Q: Which results are given for CNC(=C[N+](=O)[O-])NCCSCc1ccc(CN(C)C)o1 [ranitidine hydrochloride Form 1, ranitidine hydrochloride]?
A: hygroscopicity [2]: more hygroscopic than Form 2; conversion into Form 2 ([2]; room temperature, in the presence of moisture): may be converted in small amounts in the presence of moisture into Form 2

Q: With CNC(=C[N+](=O)[O-])NCCSCc1ccc(CN(C)C)o1 [ranitidine hydrochloride Form 2, ranitidine hydrochloride] as the compound, how does the hygroscopicity [2] read?
A: Its hygroscopicity is “less hygroscopic than Form 1”.

Q: Which results are given for CNC(=C[N+](=O)[O-])NCCSCc1ccc(CN(C)C)o1 [ranitidine hydrochloride]?
A: water solubility ([3]; both allomorphous forms (Form 1 and Form 2)): 900 mg in 1 ml of water; solubility ([3]; in water, at 25° C): over 900 mg/ml
